Reference: patent US20090054403A1, “Treatment of Post-Traumatic Stress Disorder” (priority 2007, published 2009)

Assays:
[1] = target: T1, HMG-CoA reductase (Homo sapiens, UniProt P04035); experiment: Selected enzyme assay; type: biochemical
T1 construct: PanLabs Inc (assay provider)
Experimental: (§1) The activity of nepicastat at twelve selected enzymes and receptors was determined using established assays. Details of individual receptor radioligand binding assays can be found in Wong et al (1993). Binding data were analyzed by iterative curve-fitting to a four parameter logistic equation. Ki values were calculated from IC50 values using the Cheng-Prusoff equation. Enzyme inhibitory activity was expressed as IC50 (concentration required to produce 50% inhibition of enzyme activity). Male SHRs (15-16 weeks old, Charles River, Wilmington, Mass., USA) were used in the study. On the day of the study, animals were weighed and randomly assigned to be dosed with either vehicle (control) or the appropriate dose of nepicastat (3, 10, 30 or 100 mg.kg^−1, po) or (R)-5-Aminomethyl-1-(5,7-difluoro-1,2,3,4-tetrahydronaphth-2-yl)-2,3-dihydro-2-thioxo-1H-imidazole hydrochloride (30 mg.kg^−1, po) three consecutive times, twelve hours apart. At six hours after the third dose, the rats were anaesthetized with halothane, decapitated and tissues (cerebral cortex, mesenteric artery and left ventricle) were rapidly harvested, weighed, placed in iced perchloric acid (0.4 M), frozen in liquid nitrogen and stored at −70° C. until subsequent analysis. To quantify noradrenaline and dopamine concentrations, tissues were homogenized by brief sonication and centrifuged at 13,000 rpm for 30 minutes at 4° C. The supernatant, spiked with 3,4-dihydroxybenzylamine (internal standard), was assayed for noradrenaline and dopamine by HPLC using electrochemical detection.
(§2) In vitro assay of selected enzymes and neurotransmitter receptors. The activity of 2a at eleven different enzymes was determined using established assays (PanLabs Inc, Foster City, Calif.). The affinity of 2a for thirteen selected receptors was determined by radioligand binding assays using standard filtration techniques and membrane preparations. Binding data were analyzed by iterative curve fitting to a four parameter logistic equation. Ki values were calculated using the Cheng-Prusoff equation.

[2] = target: acetyl CoA synthetase; experiment: Selected enzyme assay; type: biochemical
Experimental: as §1, §2

[3] = target: acyl CoA-cholesterol acyl transferase; experiment: Selected enzyme assay; type: biochemical
Experimental: as §1, §2

[4] = target: T2, cyclooxygenase-I (Homo sapiens, UniProt P23219); experiment: Selected enzyme assay; type: biochemical
T2 construct: PanLabs Inc (assay provider)
Experimental: as §1, §2

[5] = target: T3, neutral endopeptidase (Homo sapiens, UniProt P08473); experiment: Selected enzyme assay; type: biochemical
T3 construct: PanLabs Inc (assay provider)
Experimental: as §1, §2

[6] = target: nitric oxide synthase; experiment: Selected enzyme assay; type: biochemical
Experimental: as §1, §2

[7] = target: protein kinase C; experiment: Selected enzyme assay; type: biochemical; conditions: b560 prints protein kinase (non-selective)
Experimental: as §1, §2

[8] = target: T4, tyrosine hydroxylase (Homo sapiens, UniProt P07101); experiment: Selected enzyme assay; type: biochemical
T4 construct: PanLabs Inc (assay provider)
Experimental: as §1, §2

[9] = tested on: dopamine and norepinephrine levels; experiment: 24 hour time course of tissue catecholamines in SHR after a single oral dose; type: in vivo, spontaneously hypertensive rats
Experimental: The purpose of this study was to determine the 24 hours time course of the effects of nepicastat (10 mg/kg) on dopamine and norepinephrine levels in the mesenteric artery following a single oral dose in spontaneously hypertensive rats. Catecholamine levels were measured at 1, 2, 4, 6, 8, 12, 16, and 24 hours after a single oral administration of either nepicastat (10 mg/kg) or vehicle (dH2O; 10 ml/kg).
Sixteen-17 week old, male spontaneous hypertensive rats (SHR) rats weighing 300-400 grams were allowed food and water ad libitum. Animals were weighed and randomly assigned, the afternoon before the study, to one of the following treatment groups (n=9 per group): […] of vehicle (10 ml/kg) to be sacrificed at 1, 2, 4, 6, 8, 12, 16, or 24 hours. nepicastat was synthesized as the hydrochloride salt by the Institute of Organic Chemistry, Syntex Discovery Research and obtained from Syntex Central Compound Inventory. nepicastat was dissolved in vehicle (dH2O) to yield an oral dose that could be administered in repeated volumes of 10 ml/kg. All doses of nepicastat were administered as free base equivalents and prepared the morning of administration. Animals were dosed every […] the morning of sacrifice. At 1, 2, 4, 6, 8, 12, 16 and 24 hours following administration, 9 treated animals and 9 vehicle animals were anesthetized with halothane, decapitated, and the left ventricle and mesenteric artery were rapidly harvested and weighed. The mesenteric artery was put in 0.5 ml of 0.4M perchloric acid in a centrifuge tube and the left ventricle put into an empty cryotube. Both tissues were immediately frozen in liquid nitrogen and stored at −70° C. Mesenteric artery catecholamine levels were determined using HPLC with electrochemical detection. At the time of decapitation, plasma samples were taken by draining blood from the carcass into a tube containing heparin, and centrifuging at 4° C.
Each treatment group was compared to vehicle at each time point. A two way analysis of variance (ANOVA) with effects TRT, HARVEST and their interaction was performed. A one way ANOVA with factor TRT was performed for each harvest time.

[10] = tested on: aortic contractile response to phenylephrine; experiment: Aortic contractile response in vitro to phenylephrine after 21 days treatment; type: in vivo, SHR; conditions: 10 mg/kg p.o. daily for 21 days
[11] = tested on: mice; experiment: Gross motor behavior and locomotor activity after acute dosing; type: in vivo

T1 sequence (P04035 whole entry, species assumed): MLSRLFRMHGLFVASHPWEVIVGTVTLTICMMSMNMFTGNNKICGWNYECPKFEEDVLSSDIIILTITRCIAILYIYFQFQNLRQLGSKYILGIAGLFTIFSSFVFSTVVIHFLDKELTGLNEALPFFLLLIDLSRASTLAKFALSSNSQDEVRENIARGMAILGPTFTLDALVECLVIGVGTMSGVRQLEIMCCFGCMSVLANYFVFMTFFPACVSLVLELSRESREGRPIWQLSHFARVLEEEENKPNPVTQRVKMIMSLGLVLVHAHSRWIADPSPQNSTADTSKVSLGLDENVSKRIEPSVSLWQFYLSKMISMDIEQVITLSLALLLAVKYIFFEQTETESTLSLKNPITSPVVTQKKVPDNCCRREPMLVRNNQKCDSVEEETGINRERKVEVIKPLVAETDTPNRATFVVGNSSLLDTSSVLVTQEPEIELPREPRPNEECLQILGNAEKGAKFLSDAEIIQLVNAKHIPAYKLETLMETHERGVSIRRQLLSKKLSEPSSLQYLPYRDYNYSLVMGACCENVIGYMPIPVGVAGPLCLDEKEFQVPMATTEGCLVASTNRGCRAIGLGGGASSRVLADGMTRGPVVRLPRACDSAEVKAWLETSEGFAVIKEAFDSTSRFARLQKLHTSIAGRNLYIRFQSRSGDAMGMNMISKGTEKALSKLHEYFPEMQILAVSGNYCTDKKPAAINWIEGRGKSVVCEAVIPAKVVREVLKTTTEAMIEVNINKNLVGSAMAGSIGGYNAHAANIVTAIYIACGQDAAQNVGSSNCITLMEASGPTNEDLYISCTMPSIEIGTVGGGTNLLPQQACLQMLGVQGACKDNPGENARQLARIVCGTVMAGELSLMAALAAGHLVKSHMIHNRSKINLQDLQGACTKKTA
T3 sequence (P08473 whole entry, species assumed): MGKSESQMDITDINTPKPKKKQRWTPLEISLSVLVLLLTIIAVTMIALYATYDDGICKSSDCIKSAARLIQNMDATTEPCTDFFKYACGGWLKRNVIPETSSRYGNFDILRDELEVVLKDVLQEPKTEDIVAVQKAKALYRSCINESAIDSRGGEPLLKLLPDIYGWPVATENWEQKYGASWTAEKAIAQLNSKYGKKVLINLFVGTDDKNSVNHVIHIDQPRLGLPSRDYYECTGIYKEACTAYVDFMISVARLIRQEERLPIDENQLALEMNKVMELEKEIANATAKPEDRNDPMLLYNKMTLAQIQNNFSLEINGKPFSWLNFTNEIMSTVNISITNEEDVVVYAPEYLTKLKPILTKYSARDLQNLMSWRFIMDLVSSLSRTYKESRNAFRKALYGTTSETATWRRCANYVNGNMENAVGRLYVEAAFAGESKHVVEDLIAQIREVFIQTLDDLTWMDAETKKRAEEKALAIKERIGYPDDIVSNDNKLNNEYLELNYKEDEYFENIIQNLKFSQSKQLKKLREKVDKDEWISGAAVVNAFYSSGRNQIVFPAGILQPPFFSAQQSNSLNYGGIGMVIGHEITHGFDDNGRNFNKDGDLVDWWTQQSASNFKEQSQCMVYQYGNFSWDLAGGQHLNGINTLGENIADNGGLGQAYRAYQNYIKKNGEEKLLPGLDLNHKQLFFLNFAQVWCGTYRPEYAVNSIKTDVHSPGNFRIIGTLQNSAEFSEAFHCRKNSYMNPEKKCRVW
T2 sequence (P23219 24-599): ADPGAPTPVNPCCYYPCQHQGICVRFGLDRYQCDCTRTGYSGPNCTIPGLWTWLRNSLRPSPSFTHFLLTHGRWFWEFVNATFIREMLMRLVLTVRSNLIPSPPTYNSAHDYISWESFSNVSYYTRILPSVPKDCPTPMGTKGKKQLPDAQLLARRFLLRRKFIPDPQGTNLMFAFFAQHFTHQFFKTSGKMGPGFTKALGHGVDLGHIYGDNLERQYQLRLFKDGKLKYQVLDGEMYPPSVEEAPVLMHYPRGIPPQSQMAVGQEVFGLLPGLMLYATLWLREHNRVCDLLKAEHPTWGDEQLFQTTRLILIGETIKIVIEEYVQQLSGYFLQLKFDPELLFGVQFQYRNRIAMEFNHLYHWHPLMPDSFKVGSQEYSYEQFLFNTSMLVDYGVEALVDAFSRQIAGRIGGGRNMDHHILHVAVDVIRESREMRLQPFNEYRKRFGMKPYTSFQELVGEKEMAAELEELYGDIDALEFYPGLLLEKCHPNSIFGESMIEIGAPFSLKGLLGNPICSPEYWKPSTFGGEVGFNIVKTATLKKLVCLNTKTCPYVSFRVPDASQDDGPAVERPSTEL
T4 sequence (P07101 whole entry): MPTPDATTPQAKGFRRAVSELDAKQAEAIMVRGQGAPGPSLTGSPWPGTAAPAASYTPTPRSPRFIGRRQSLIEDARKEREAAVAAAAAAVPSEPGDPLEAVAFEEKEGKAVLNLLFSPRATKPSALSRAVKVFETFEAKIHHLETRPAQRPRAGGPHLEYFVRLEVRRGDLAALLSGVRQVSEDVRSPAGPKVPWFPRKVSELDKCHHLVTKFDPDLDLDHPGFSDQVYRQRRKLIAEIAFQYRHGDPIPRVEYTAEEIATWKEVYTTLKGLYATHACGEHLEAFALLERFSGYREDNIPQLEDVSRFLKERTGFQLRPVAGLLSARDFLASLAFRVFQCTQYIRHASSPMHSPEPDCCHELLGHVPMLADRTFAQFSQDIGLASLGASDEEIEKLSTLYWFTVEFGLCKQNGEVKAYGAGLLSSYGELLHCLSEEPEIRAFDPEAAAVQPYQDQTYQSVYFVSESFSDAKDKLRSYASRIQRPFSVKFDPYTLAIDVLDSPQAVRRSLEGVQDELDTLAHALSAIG

With `Cl.NCc1c[nH]c(=S)n1[C@H]1CCc2c(F)cc(F)cc2C1` [nepicastat, (S)-5-Aminomethyl-1-(5,7-difluoro-1,2,3,4-tetrahydronaphth-2-yl)-2,3-dihydro-2-thioxo-1H-imidazole hydrochloride] the IC50 [1] was greater than 10 µM, the IC50 [2] was greater than 10 µM and the IC50 [3] was greater than 10 µM. It also gave an IC50 [4] greater than 10 µM, an IC50 [5] greater than 10 µM and an IC50 [6] greater than 10 µM. The IC50 [7] was greater than 10 µM, the IC50 [8] was greater than 10 µM and the “duration of increase in dopamine/norepinephrine ratio” value ([9]; 10 mg/kg oral, mesenteric artery) was 12 h. For the same compound, the “dopamine vs vehicle, mesenteric artery” value ([9]; 10 mg/kg single oral, 1-24 h) was “significantly (p<0.05) higher than those of vehicle at the 2 and 6 hr harvest times”, the “dopamine/norepinephrine ratio vs vehicle, mesenteric artery” value ([9]; 10 mg/kg single oral, 1-24 h) was “significantly (p<0.05) greater than those of vehicle treated animals at the 1, 2, 4, 6 and 12 hour time points” and the “norepinephrine vs vehicle, mesenteric artery” value ([9]; 10 mg/kg single oral, 1-24 h) was “significantly (p<0.05) lower than vehicle only at the 4 hr time point”. For the same compound, the “duration of increase in dopamine/norepinephrine ratio” value ([9]; 30 mg/kg oral, left ventricle) was 24 h, the aortic phenylephrine responsiveness [10] was “restored phenylephrine responsiveness” and the gross motor behavior ([11]; 1.0-30 mg/kg p.o., acute) was “no significant effects on gross motor behavior”. The locomotor activity ([11]; 10-100 mg/kg i.p.) was “did not effect locomotor activity”.
